Target: T1, NaV1.3 (Rattus norvegicus, UniProt P08104)
T1 construct: gene Scn3a
Test: manual whole-cell patch-clamp of endogenous INa in GH3b6 cells
Format: cell-based
Settings: read-out: % reduction of INa amplitude at 1 μM

T1 sequence (P08104 whole entry): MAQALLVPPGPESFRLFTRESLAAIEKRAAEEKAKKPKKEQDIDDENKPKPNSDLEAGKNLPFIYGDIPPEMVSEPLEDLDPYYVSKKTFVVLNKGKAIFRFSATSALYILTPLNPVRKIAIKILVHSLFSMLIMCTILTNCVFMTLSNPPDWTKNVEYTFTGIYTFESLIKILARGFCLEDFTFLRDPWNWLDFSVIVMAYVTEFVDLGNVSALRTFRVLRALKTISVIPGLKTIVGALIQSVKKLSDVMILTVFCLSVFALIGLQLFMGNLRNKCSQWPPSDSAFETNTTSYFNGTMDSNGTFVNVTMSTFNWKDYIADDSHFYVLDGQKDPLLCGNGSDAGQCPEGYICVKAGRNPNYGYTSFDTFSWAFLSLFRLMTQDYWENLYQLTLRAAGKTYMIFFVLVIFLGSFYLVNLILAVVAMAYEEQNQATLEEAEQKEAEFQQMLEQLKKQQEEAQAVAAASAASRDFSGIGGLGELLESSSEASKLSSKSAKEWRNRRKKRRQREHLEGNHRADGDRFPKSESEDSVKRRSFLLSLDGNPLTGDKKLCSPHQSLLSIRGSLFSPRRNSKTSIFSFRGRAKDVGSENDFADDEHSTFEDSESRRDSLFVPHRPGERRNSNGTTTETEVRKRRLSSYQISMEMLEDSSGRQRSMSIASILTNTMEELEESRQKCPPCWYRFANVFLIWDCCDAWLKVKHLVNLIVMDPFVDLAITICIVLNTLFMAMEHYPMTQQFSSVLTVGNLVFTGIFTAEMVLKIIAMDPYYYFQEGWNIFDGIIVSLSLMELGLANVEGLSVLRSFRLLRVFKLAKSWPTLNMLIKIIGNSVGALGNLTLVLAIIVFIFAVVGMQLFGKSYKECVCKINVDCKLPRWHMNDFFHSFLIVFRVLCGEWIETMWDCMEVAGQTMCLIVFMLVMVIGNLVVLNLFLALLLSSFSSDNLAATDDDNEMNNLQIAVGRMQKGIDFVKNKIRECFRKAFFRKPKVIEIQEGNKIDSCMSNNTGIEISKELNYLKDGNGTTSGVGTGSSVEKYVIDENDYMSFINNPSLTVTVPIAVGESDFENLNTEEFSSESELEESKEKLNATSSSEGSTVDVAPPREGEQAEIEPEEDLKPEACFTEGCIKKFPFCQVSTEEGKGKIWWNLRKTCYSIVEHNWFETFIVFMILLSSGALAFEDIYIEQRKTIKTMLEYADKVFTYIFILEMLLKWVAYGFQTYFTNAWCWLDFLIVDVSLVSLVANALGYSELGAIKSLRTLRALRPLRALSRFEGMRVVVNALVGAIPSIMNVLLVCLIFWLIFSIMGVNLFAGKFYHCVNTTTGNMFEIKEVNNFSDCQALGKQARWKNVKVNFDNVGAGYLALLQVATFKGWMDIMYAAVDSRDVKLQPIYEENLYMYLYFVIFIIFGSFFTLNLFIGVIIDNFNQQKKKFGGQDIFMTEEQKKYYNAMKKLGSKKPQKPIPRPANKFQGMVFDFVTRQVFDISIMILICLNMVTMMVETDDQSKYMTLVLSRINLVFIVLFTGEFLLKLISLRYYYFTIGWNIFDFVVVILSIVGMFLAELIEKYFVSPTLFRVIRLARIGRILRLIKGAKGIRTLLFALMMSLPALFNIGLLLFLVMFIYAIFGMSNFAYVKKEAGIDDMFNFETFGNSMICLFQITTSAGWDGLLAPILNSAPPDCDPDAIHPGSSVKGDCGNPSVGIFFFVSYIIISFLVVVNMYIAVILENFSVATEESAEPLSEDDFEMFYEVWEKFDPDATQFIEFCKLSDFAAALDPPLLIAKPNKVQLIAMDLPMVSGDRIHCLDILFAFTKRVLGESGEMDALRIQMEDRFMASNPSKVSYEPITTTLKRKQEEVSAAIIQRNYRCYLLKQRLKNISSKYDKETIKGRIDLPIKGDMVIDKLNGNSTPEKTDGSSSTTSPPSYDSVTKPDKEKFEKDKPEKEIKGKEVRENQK

O=C(Nc1ccc(S(=O)(=O)Nc2nccs2)cc1)C(c1ccccc1)c1ccccc1 [ICA-121431]
inhibition at 1 µM: 50%
